Experiments:
[1] = Inhibition of wild type Mycobacterium bovis BCG cytochrome bd oxidase assessed as inhibition of oxygen consumption rate measured after 5 days by Methylene blue dye based assay; parameters: species or system Mycobacterium tuberculosis variant bovis
[2] = Inhibition of Mycobacterium bovis BCG cytochrome bd oxidase with ATP synthase overexpression inverted membrane vesicles; format: cell membranes, Mycobacterium tuberculosis variant bovis, Membrane vesicle

Structure (SMILES)	IC50 [1] [µM]	IC50 [2] [µM]
FC(F)(F)c1ccc(Oc2ccc(Nc3ncnc4ccccc34)cc2)cc1	0.8	0.5
CCc1nc2ccc(Cl)cn2c1C(=O)NCc1ccc(N2CCC(c3ccc(OC(F)(F)F)cc3)CC2)cc1 [TELACEBEC]	–	6.2
c1ccc(CCNc2ncnc3ccccc23)cc1	–	11
NC(=O)NC(=O)c1nc(-c2cc3ccccc3o2)c(N)nc1N	–	21.2

From ChEMBL document CHEMBL5344478, “Cytochrome bd oxidase: an emerging anti-tubercular drug target” (RSC Med Chem, 2024)
